Test results reported in ChEMBL document CHEMBL1201862, “PubChem BioAssay data set” (2004).
Active and inactive are the calls of the source.

What was measured:
[1] = Luminescence Cell-Based Dose Retest to Confirm Inhibitors of Cancer Stem Cells. [Related pubchem assays (depositor defined):AID2717, AID2721]; assay type: functional; settings: Homo sapiens
[2] = molecular target: T1, Heat shock factor protein 1 (Mus musculus, UniProt P38532); assay: enhancement of HSF1-driven luciferase signal – cell-based, NIH3T3, luminescence, dose retest, confirmation (AID 435004); assay type: functional;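 also: stress induced by proteasome inhibitor MG132 added 30 min after compound; luciferase reporter driven by HSF1 response element in NIH3T3 cells; actives raise luminescence as potentiators of the MG132 stress response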
T1 sequence (P38532 whole entry): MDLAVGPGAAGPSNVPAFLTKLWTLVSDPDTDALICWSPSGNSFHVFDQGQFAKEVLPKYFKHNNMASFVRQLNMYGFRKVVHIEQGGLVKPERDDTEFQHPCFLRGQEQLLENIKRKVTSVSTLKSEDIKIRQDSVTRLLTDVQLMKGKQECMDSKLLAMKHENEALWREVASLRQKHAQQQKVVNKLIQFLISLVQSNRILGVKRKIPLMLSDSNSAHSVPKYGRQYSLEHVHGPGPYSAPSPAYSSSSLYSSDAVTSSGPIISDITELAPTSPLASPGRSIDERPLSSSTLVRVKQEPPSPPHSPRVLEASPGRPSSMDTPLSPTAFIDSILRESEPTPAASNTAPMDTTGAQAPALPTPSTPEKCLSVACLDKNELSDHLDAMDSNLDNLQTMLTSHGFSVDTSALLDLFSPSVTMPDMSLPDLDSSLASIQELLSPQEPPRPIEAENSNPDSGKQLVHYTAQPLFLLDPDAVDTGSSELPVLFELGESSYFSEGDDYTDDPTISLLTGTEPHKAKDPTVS

[3] = molecular target: T2, Microphthalmia-associated transcription factor (Homo sapiens, UniProt O75030); assay: reducers of TRPM1 reporter luminescence, concentration series – cell-based, SK-MEL-5, cherry-picked, set 3, MITF inhibitor project, dose response (AID 493073); assay type: functional;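 also: SK-MEL-5 melanoma cells with luciferase driven by the MITF target TRPM1 promoter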
T2 sequence (O75030 whole entry): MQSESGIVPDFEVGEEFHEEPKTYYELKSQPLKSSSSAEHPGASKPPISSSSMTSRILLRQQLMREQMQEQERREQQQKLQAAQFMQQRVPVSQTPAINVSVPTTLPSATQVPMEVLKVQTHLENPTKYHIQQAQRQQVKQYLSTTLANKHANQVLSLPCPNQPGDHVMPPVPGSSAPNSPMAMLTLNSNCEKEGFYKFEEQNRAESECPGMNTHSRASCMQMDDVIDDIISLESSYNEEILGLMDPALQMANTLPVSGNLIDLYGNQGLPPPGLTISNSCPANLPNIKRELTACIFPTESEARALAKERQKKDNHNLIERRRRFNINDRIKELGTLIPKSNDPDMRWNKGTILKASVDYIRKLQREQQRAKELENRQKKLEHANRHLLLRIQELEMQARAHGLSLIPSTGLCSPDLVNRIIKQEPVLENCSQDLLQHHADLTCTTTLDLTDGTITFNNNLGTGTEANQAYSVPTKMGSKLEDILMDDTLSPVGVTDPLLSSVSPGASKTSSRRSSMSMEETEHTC

[4] = molecular target: T3, Replicative DNA helicase DnaB (Mycobacterium tuberculosis, UniProt P9WMR3); assay: DnaB intein splicing inhibitors, dose response, biochemical, cell-free fluorescence (AID 449749); assay type: functional
T3 sequence (P9WMR3 whole entry): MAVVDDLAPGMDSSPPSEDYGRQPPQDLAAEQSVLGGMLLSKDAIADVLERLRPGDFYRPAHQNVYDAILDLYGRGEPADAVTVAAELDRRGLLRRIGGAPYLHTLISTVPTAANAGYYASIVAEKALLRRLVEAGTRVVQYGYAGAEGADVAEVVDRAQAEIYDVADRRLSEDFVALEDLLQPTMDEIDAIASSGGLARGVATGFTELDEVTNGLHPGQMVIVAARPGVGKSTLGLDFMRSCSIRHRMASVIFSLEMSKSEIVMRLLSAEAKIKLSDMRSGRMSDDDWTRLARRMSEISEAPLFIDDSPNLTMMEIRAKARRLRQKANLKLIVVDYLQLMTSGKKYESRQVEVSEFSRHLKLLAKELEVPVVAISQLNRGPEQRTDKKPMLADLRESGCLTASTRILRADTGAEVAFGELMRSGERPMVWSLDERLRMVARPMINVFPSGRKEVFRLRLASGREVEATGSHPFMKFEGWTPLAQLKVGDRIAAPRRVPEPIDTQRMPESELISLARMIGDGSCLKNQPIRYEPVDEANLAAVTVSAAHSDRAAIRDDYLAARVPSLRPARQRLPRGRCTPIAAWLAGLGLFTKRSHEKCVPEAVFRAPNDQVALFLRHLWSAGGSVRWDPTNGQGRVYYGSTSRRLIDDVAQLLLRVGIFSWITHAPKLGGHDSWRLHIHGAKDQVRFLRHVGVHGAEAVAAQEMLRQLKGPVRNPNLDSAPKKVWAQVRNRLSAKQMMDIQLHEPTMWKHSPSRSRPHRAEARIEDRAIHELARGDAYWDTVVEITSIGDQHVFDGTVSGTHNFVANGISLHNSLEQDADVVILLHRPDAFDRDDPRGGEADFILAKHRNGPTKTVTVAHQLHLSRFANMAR

[5] = molecular target: T4, Protein RecA (Mycobacterium tuberculosis, UniProt P9WHJ3); assay: Fluorescence Cell-Free Homogeneous Dose Retest to Identify Inhibitors of RecA-Intein Splicing Activity. [Related pubchem assays (depositor defined):AID2097, AID2223, AID489010, AID492950]; assay type: functional
T4 sequence (P9WHJ3 whole entry): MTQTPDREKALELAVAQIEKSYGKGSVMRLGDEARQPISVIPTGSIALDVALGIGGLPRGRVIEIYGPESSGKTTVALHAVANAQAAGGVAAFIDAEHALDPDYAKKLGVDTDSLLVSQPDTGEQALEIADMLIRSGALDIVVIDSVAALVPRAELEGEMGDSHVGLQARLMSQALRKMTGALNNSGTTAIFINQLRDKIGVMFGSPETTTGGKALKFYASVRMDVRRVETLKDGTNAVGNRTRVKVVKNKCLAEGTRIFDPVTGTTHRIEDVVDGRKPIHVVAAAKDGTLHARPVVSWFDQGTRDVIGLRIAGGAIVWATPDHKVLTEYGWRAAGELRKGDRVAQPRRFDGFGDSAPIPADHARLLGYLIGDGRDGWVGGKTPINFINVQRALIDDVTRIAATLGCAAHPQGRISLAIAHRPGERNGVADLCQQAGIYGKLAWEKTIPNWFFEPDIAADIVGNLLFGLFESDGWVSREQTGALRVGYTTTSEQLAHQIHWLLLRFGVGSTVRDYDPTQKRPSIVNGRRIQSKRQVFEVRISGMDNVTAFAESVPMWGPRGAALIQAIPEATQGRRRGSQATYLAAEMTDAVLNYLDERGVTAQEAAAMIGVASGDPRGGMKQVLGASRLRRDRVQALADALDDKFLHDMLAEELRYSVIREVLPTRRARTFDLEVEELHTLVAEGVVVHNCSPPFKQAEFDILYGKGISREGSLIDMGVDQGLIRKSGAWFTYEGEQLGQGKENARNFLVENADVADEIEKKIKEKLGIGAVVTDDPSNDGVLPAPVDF

[6] = molecular target: T5, High affinity choline transporter 1 (Homo sapiens, UniProt Q9GZV3); assay: human choline transporter blockers, potency – cell-based, 5-point CRC, membrane potential dye, dose response (AID 504840); assay type: functional
T5 sequence (Q9GZV3 whole entry): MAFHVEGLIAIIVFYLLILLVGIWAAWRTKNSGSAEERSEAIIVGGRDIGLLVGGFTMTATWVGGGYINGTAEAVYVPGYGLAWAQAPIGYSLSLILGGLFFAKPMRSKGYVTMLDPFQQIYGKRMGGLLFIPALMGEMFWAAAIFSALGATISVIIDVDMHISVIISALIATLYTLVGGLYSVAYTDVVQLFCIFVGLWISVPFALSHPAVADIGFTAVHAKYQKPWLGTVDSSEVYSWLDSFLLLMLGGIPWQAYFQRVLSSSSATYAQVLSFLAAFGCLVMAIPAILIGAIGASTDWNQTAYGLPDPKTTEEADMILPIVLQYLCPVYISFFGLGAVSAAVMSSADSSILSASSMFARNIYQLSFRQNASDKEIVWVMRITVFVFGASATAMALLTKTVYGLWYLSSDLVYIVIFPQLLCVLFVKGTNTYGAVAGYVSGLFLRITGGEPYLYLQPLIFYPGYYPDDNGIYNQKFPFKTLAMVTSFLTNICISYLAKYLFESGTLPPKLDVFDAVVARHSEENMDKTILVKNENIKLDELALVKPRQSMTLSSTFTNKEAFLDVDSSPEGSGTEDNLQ

[7] = microbe, parasite or virus in culture; assay type: functional; settings: Mycobacterium tuberculosis
[8] = cells; assay type: functional
[9] = system: BJ; assay: BJ-TERT fibroblast viability loss – cell-based, RAS-independent, luminescence, dose response (AID 1933); assay type: functional; settings: Homo sapiens
[10] = cells; assay type: functional, cell-based
[11] = system: BJ; assay: cells; assay type: functional, cell-based; settings: Homo sapiens
[12] = cells; assay type: functional, cell-based; remark: listed apart in the source
[13] = system: BJ; assay: BJ-TERT-LT-ST fibroblast viability loss – cell-based, RAS-independent, luminescence, dose response (AID 1935); assay type: functional; settings: Homo sapiens;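 also: BJ fibroblasts immortalized with TERT plus LT and ST oncogenes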
[14] = DRD fibroblast viability loss – cell-based, non-viral oncogenic, luminescence, dose response (AID 1934); assay type: functional; settings: Homo sapiens
[15] = molecular target: Heat shock protein HSP 90-alpha (Homo sapiens, UniProt P07900); assay type: functional, organism-based
[16] = system: INS1; assay: INS-1E survival protection against cytokine death – cell-based, luminescence, retest, dose response (AID 449756); assay type: functional; settings: Rattus norvegicus;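 also: cell death triggered by IL-1 beta plus TNF-alpha plus IFN-gamma mixture; protective hits raise ATP signal compared with cytokine alone wells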
[17] = molecular target: T6, Polyadenylate-binding protein 1 (Homo sapiens, UniProt P11940); assay: MLLE binding blockers, Cy5 peptide tracer – biochemical, fluorescence polarization, Cy5-PAM2 peptide, secondary, miRNA deadenylation inhibitor project, dose response (AID 602260); assay type: functional; settings: read-out: IC50_Mean
[18] = molecular target: T6, Polyadenylate-binding protein 1; assay: MLLE domain peptide-binding blockers, IC50 – biochemical, fluorescence polarization, FITC-PAM2 peptide, dose response (AID 602259); assay type: functional; settings: read-out: IC50_Mean
[19] = molecular target: Paired box protein Pax-8 (Homo sapiens, UniProt Q06710); assay: PAX8 transcriptional activity inhibition in RMG-I – RMG-I cells, luciferase, cherry-pick, dose response (AID 687027); assay type: functional, cell-based;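 also: luciferase reporter driven by Pax8 target thyroperoxidase promoter measured by SteadyGlo luminescence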
[20] = molecular target: Voltage-dependent T-type calcium channel subunit alpha-1H (Homo sapiens, UniProt O95180); assay type: functional;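 also: channel activity triggered by adding a high calcium stimulation buffer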
[21] = blockers of bursicon-stimulated LGR2 cAMP reporter – cell-based, HEK293, CRE-luciferase reporter, cherry pick, set 2, dose response (AID 743343); assay type: functional;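 also: transfected cells were stimulated with diluted bursicon conditioned medium after compound addition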
[22] = blockade of melanocortin 4 receptor signaling – cell-based, plate reader, cherry pick, counter-screen for LGR2 antagonist project, dose response (AID 743444); assay type: functional;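 also: transfected HEK 293 cells stimulated with alpha-MSH peptide; potency of inhibitors of the alpha-MSH evoked signal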
[23] = molecular target: Cytochrome P450 2D6 (Homo sapiens, UniProt P10635);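 also: CYP2D6 member of a cytochrome P450 panel assay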
[24] = P. falciparum Dd2 growth inhibitors, dose response, SYBR Green, cherry-picked samples (AID 1159567); assay type: functional, cell-based

T6 sequence (P11940 whole entry, the tested form may be a part): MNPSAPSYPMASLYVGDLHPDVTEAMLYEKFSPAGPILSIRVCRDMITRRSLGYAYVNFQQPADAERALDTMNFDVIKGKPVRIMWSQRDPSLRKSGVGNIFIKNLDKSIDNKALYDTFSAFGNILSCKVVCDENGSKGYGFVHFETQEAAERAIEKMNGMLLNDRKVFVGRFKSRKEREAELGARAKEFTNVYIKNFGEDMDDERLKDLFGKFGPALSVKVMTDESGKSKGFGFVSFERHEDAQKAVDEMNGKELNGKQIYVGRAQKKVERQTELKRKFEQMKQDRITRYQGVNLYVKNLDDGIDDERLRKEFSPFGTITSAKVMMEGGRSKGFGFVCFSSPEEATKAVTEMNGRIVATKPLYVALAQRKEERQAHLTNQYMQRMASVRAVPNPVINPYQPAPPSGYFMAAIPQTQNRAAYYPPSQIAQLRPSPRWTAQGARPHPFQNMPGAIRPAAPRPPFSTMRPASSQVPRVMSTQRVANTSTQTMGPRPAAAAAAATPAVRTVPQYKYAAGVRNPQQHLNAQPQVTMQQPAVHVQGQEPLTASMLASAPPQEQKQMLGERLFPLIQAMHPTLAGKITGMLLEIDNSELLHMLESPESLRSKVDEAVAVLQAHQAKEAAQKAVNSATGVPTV
Cytochrome P450 2D6, sequence (P10635 whole entry): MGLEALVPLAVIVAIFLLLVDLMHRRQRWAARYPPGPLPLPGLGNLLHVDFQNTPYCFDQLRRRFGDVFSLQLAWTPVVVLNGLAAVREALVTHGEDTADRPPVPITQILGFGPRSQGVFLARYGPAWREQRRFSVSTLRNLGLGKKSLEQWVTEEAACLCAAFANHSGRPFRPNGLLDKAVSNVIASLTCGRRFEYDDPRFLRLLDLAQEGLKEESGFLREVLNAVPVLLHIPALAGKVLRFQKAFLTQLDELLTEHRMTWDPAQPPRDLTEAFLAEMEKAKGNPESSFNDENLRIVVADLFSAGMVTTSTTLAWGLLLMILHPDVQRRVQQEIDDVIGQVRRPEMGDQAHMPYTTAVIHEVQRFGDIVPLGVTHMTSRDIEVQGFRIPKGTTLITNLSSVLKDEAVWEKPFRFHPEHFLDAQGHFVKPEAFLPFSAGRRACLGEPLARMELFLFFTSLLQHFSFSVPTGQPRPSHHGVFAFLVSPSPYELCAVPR
Paired box protein Pax-8, sequence (Q06710 whole entry): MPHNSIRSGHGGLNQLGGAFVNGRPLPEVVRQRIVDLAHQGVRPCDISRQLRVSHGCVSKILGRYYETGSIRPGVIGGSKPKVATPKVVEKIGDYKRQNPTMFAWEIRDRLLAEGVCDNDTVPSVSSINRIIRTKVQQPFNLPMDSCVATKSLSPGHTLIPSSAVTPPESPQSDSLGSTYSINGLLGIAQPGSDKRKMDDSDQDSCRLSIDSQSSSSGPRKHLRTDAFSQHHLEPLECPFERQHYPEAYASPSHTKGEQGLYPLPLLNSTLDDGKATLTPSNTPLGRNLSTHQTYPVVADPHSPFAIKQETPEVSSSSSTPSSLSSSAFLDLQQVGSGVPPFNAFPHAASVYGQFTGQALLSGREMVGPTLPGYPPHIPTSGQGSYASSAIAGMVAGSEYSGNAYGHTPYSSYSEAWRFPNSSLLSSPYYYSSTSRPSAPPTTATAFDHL
Voltage-dependent T-type calcium channel subunit alpha-1H, sequence (O95180 whole entry): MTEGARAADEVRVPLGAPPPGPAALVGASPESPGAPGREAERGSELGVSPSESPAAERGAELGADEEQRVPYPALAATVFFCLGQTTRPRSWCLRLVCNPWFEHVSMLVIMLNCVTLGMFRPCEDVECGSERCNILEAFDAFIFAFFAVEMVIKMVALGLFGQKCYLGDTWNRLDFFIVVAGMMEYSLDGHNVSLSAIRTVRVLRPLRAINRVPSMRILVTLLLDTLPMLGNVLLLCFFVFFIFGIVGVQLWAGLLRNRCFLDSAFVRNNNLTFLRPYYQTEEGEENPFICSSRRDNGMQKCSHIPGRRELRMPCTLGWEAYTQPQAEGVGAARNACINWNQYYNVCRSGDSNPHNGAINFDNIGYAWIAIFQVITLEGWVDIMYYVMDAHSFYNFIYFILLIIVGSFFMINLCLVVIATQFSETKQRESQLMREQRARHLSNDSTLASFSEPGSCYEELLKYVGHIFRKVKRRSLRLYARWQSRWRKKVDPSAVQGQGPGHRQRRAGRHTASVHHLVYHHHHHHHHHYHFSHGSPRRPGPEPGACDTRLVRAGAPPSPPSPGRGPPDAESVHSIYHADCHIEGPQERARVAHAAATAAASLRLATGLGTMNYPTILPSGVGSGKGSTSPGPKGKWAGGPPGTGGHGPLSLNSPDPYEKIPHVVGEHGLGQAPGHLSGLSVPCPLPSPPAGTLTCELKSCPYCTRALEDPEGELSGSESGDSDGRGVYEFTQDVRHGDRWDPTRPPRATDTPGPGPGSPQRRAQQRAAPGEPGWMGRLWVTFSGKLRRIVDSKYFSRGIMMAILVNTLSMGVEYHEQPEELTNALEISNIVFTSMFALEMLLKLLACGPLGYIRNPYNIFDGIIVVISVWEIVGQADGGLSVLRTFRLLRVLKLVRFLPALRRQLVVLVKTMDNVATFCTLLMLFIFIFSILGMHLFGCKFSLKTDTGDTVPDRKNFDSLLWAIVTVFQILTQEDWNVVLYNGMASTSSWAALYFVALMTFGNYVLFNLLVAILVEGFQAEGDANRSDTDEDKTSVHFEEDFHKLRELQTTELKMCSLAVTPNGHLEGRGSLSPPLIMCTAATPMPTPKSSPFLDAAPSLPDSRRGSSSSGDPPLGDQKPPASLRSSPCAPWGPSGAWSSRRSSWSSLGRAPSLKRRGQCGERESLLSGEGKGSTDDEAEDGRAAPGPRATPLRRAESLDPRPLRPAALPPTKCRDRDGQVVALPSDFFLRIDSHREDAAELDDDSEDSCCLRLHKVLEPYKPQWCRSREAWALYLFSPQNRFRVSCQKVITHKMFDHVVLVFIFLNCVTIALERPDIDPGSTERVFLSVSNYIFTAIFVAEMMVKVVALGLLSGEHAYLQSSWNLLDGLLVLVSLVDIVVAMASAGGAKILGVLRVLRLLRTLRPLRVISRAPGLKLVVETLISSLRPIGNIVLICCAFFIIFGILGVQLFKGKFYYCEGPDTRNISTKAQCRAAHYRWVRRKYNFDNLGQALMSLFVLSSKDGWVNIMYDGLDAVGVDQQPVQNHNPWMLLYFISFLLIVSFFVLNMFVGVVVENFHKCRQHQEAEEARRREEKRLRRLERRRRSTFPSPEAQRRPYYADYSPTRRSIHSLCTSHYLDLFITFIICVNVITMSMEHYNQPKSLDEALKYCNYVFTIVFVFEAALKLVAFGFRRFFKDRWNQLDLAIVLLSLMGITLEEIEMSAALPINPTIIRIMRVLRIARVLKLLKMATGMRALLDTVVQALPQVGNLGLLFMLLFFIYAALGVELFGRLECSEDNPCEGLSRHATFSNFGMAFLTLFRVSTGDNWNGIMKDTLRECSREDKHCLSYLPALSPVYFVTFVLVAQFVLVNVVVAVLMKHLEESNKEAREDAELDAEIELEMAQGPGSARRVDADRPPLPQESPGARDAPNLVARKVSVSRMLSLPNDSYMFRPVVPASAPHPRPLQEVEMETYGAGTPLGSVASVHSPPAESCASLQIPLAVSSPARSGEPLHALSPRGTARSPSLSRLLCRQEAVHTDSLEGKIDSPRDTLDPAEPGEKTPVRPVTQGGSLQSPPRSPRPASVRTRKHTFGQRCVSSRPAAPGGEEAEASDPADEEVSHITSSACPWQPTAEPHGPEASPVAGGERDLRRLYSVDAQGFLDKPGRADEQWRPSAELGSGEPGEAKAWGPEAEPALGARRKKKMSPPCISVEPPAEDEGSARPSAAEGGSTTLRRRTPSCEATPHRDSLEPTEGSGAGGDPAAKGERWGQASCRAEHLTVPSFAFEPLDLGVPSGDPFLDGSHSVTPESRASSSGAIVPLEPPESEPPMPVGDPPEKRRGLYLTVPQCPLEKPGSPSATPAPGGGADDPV

COC(=O)[C@@H]1C[C@]2(OC(=O)c3ccccc3)C=CC(=O)C[C@@H]2N1C(=O)OCc1ccccc1
AC50 [1]: 6.36 µM (active) | EC50 [2]: 18.5 µM (active) | AC50 [3]: 14 µM (active) | AC50 [4]: 8.72 µM (active) | EC50 [5]: 10.5 µM (active)

CN(Cc1ccccc1)c1nc(N)nc(Cl)c1C=O
IC50 [6]: 15.1 µM (active)

Cc1cc(OCc2cc(C(=O)N(C)CCc3cnn(C)c3)no2)cc(C)c1Cl
CC50 [7]: > 40 µM (active) | IC50 [8]: 29.6 µM (active)

Oc1ccc2ccccc2c1N=Nc1nccs1
EC50 [9]: 1.32 µM (active) | EC50 [10]: 40.4 µM (active) | EC50 [11]: 2.03 µM (active) | CC50 [7]: 17.8 µM (active) | EC50 [12]: 40.5 µM (active) | EC50 [13]: 2.91 µM (active) | EC50 [14]: 10.3 µM (active) | AC50 [15]: 0.932 µM (active) | AC50 [16]: 0.666 µM (active) | IC50 [17]: > 66 µM (inactive) | IC50 [18]: > 66 µM (inactive) | AC50 [19]: 2.92 µM (active)

CCc1nnc(NS(=O)(=O)c2ccc(NC(=O)c3cccc(Br)c3)cc2)s1
IC50 [6]: 13.2 µM (active)

Cc1cc(C)cc(-n2c(C)c3c(C)nnc(C)c3c2C)c1
CC50 [7]: > 40 µM (active)

CCCCCOc1ccc(N2C(=O)C3C4C=CC(C3C2=O)N(C)C4=O)cc1 (centres undefined)
CC50 [7]: > 40 µM (active)

CCc1ccccc1NC(=O)c1ccc(CN2CCC(Cc3ccccc3)CC2)cc1
EC50 [20]: 0.111 µM (active) | IC50 [6]: 13.8 µM (active)

O=C(CCCc1ccccc1)Nc1cccc(C(=O)O)c1
AC50 [3]: 4.42 µM (active) | AC50 [21]: 2.04 µM (active) | AC50 [22]: 1.91 µM (active)

CC1CCN(S(=O)(=O)c2ccc3c(c2)N(CC(=O)NCCCN2C(C)CCCC2C)C(=O)CO3)CC1 (centres undefined)
IC50 [6]: 13.5 µM (active)

CCN(CC)S(=O)(=O)c1cccc(C(=O)N/N=C(\C)c2ccc(O)cc2O)c1
EC50 [10]: 11.7 µM (active) | EC50 [12]: > 350 µM (not active) | AC50 [3]: 3.74 µM (active)

Cc1ccc(NCC(=O)N/N=C\c2ccc([N+](=O)[O-])o2)cc1
AC50 [3]: 19.1 µM (active) | AC50 [23]: 15.8 µM (inconclusive)

C/C(=N\NC1=NCCN1)c1ccccc1
IC50 [6]: 12.9 µM (active)

CO[C@@H]1CN(C)C(=O)c2cc(NC(=O)Nc3ccc(C(F)(F)F)cc3)ccc2OC[C@H](C)NC[C@@H]1C
AC50 [24]: 5.85 µM (active)

COc1ccc(-c2ccc3c(c2)[C@@H]2[C@@H](CCN2Cc2ccncc2)[C@@H](CO)N3)cc1
AC50 [24]: 8.88 µM (active)

N#C[C@@H]1[C@@H](c2ccccc2C2=CCCC2)[C@H](CO)N1C(=O)C1CC1
AC50 [24]: > 36 µM (inactive)

COc1ccc2c3c(n(C)c2c1)[C@H](CO)N(C(=O)Nc1ccc(F)cc1)CC31CCN(Cc2ccccn2)CC1
AC50 [24]: 3.43 µM (active)
